{"source": "paper PMC10535842", "about": "“Novel Thiazole-Based SIRT2 Inhibitors Discovered via Molecular Modelling Studies and Enzymatic Assays” (Pharmaceuticals, 2023)", "key": {"[1]": {"test_system": "SIRT2", "settings": "HPLC assay, H3K9Ac; read-out: SIRT2 IC50 (series C, compounds 112-116); cited from earlier work"}, "[2]": {"target": "T1, recombinant SIRT2 (Homo sapiens, UniProt Q8IXJ6)", "T1 sequence (Q8IXJ6 1-389)": "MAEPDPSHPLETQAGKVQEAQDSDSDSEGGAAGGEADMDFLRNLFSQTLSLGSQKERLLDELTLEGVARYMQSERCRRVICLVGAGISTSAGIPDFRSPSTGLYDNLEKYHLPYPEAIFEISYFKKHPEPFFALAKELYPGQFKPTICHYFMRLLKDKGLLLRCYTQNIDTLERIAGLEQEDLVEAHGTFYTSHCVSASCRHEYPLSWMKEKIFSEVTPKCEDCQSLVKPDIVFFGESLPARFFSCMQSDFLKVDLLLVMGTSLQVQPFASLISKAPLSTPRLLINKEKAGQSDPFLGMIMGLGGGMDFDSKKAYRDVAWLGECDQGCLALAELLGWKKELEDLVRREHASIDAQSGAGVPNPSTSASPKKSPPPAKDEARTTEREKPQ", "assay": "SIRT2 deacetylase activity, recombinant SIRT2 incubated with acetylated peptide H3K9Ac and NAD+", "format": "biochemical", "settings": "recombinant protein", "procedure": "The effect of the in silico screened compounds on the SIRT2 deacetylase activity was evaluated thanks to the incubation of recombinant SIRT2 with an acetylated peptide (H3K9Ac, a peptide acetylated on Lys 9) and NAD^+."}, "[3]": {"target": "SIRT6 (Homo sapiens, UniProt Q8N6T7)", "sequence (Q8N6T7 whole entry)": "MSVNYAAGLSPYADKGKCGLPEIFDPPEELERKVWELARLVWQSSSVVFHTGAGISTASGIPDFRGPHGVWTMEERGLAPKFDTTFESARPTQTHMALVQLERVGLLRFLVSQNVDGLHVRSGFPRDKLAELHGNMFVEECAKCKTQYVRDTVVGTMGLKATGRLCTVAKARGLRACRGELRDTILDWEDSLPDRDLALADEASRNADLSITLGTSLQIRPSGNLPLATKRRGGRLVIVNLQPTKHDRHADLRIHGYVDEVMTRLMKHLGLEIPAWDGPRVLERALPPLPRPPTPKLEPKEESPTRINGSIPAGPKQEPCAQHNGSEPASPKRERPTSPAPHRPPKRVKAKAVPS", "assay": "SIRT6 deacetylase and depalmitoylase activity (H3K9Ac / H3K9Palm peptides)", "format": "biochemical", "procedure": "The synthesis of peptides H3K9Ac and H3K9Palm and the evaluation of the SIRT2 deacetylase activity and of the SIRT6 deacetylase and depalmitoylase activity were carried out as previously described. The IC50 of compound 1a was determined as in [43]."}, "[4]": {"test_system": "SIRT2 activity (acetylation status of α-tubulin)", "assay": "α-tubulin acetylation in cultured CFBE41o- cells (immunoblotting)", "format": "cell-based, human", "settings": "10 μM", "procedure": "Finally, experiments were performed to determine whether compound 1a was active in intact cells. The acetylation status of α-tubulin, a known target of SIRT2 deacetylase activity, was used to monitor SIRT2 activity in human cells.\nThe cells were incubated with 10 μM of compound 1a or the respective amount of vehicle DMSO, and were used for protein lysate generation; then, the total and acetylated α-tubulin levels were detected by Immunoblotting. The levels of acetylated α-tubulin were quantified, normalized to the total α-tubulin, and expressed as percentage increase vs. vehicle-treated cells. One representative Western blot analysis and the mean ± SD of 3 quantifications are shown. **, p < 0.01.\nThe bronchial epithelial CFBE41o- cells were cultured as in [20]. […] The proteins were subsequently transferred to nitrocellulose membranes and the expression of the total or acetylated α-tubulin was detected using the following primary antibodies: anti-α-tubulin (rabbit polyclonal, #2125, Cell Signalling Technology, Danvers, MA, USA) and anti-acetylated α-tubulin (rabbit polyclonal, #5335, Cell Signalling Technology). Following incubation with the appropriate secondary antibodies and Amersham ECL detection (Cytiva, Milano, Italy), the band intensity was quantified using the ChemiDoc imaging system (Bio-Rad, Milan, Italy). α-tubulin acetylation was normalized to the total α-tubulin levels."}, "[5]": {"target": "T2, recombinant human HSP70 (Homo sapiens, UniProt P0DMV8)", "T2 construct": "made in house; host or cells: E. coli BL21 (DE3)", "T2 sequence (P0DMV8 whole entry)": "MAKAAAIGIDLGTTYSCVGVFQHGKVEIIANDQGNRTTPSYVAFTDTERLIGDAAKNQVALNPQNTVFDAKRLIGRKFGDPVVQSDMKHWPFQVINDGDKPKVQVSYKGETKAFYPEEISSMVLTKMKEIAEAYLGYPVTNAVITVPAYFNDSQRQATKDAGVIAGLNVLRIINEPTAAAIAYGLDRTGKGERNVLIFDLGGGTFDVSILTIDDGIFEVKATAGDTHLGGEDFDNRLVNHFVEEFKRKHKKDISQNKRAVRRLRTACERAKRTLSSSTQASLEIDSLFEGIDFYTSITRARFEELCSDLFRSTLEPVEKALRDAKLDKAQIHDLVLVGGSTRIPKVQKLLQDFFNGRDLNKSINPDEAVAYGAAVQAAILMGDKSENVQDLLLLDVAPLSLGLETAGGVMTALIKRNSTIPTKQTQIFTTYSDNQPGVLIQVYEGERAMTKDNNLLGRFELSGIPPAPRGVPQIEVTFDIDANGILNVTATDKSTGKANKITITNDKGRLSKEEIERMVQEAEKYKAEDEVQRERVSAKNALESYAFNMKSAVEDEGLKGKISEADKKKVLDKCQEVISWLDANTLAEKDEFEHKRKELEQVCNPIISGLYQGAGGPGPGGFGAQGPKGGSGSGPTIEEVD", "assay": "HSP70 ATPase catalytic activity, Malachite green assay", "format": "biochemical", "settings": "300 μM final concentration; read-out: percentage of inhibition of HSP70 ATPase activity", "procedure": "The impact of selected molecules on the ATPase catalytic activity of an in-house produced recombinant human HSP70 protein was determined using the Malachite green assay, incubating the recombinant protein with ATP in the presence or absence of different compounds (300 μM final concentration). The percentage of inhibition exerted by the selected compounds on the ATPase activity was as follow: 1a, 49 ± 2%; 2a, 40 ± 1%; 3a, 44 ± 4%; 4a, 20 ± 1%; 5a, 19 ± 1%; 6a, 37 ± 1%; 7a, 47 ± 1%.\nThe recombinant human Hsp70 protein was produced in BL21 (DE3) E. coli transformed with the pET-6xHis/hHSP70 plasmid containing the coding sequence for human HSP70 (hHSPA1A gene, NM_005345.6; purchased from Vector Builder, Vector ID VB210930). This vector allowed for producing an N-terminal 6xHis tag fusion HSP70 protein.\nBL21 cells containing the vector were initially grown in Luria−Bertani medium at 37 °C (Merck, Milan, Italy) with 200 μg/mL ampicillin until the culture reached an OD600 of 0.5. The 6xHis/hHSP70 fusion protein was expressed by adding isopropyl-β-d-thiogalactopyranoside (final concentration of 0.2 mM) and incubating the bacteria culture at 37 °C for 2 h. The cells were harvested by centrifugation and then lysed by sonication in 20 mM Tris-HCl, 250 mM KCl, and 10 mM MgCl2 pH 7.4; after the addition of Triton X-100 to a final concentration of 1% and incubation for 30 min at 4 °C, the lysates were centrifugated at 10,000× g for 15 min. The HSP70 protein was purified by affinity chromatography using His GraviTrap TALON columns (Euroclone, Milan, Italy). Briefly, after loading the lysate, the resin was washed twice with 20 mM Tris-HCl, 250 mM KCl, and 10 mM MgCl2 pH 7.4 and twice with the same buffer containing 10 mM of imidazole. The elution of the recombinant protein was obtained with 150 mM imidazole, pH 7.4. Imidazole was removed from the recombinant protein through overnight dialysis using a dialysis tubing membrane (Merck KGaA, Frankfurter Strasse 250 Darmstadt, Germany) and the protein was concentrated using a Centricon (Merck Millipore, 11 Avenida Norte Bis No. 513, San Salvador, El Salvador). The protein concentrations were determined using the Bradford assay (Bio-Rad Laboratories, Inc. Italy, Segrate) and the protein purity was monitored using SDS-PAGE.\nThe ATPase catalytic activity of recombinant human HSP70 was measured with a colorimetric assay using the malachite green reagent. Briefly, 6 µM of HSP70 protein was incubated for 30 min at 37 °C with 5 mM ATP in 20 mM Tris-HCl, 250 mM KCl, 10 mM MgCl2, and 0.02%TritonX-100, pH 7.4. The released phosphates were quantified by adding the malachite green reagent to an aliquot of this incubation and the absorbance was recorded at 620 nm using a Clariostar plate reader. The effects of thiazoles-based molecules on the ATPase catalytic activity were measured by adding (or not) the different molecules to the incubation (at 300 µM final concentration). To correct for non-enzymatic hydrolysis of ATP and for a specific absorbance of molecules, the absorbance signal of identically treated samples lacking the HSP70 protein was subtracted."}}, "note": "“Also recorded” adds a separate entry of the source."}
{"smiles": "O=C(On1nnc2ccccc21)c1ccc[nH]1", "note": "[Compound 113]", "values": [{"measurement": "IC50", "setting": "[1]", "result": 42.7, "unit": "µM"}]}
{"smiles": "O=C(On1nnc2ccccc21)c1cc[nH]c1", "note": "[Compound 112]", "values": [{"measurement": "IC50", "setting": "[1]", "result": 56.6, "unit": "µM"}]}
{"smiles": "Cc1ccc2[nH]cc(C(=O)On3nnc4ccccc43)c2c1", "note": "[Compound 115]", "values": [{"measurement": "IC50", "setting": "[1]", "result": 74, "unit": "µM"}]}
{"smiles": "CSc1cccc(Nc2nc(-c3nc4ccccc4s3)cs2)c1", "note": "[Compound 1a]", "values": [{"measurement": "inhibition at 150 µM", "setting": "[2]; 150 μM", "result": "72 ± 8", "unit": "%"}, {"measurement": "IC50", "setting": "[2]", "result": "45.1 ± 5", "unit": "µM"}, {"measurement": "effect on SIRT6 deacetylase activity", "setting": "[3]", "result": "did not significantly affect"}, {"measurement": "selectivity over SIRT6", "setting": "[3]", "result": "selective over SIRT6"}, {"measurement": "effect on SIRT6 depalmitoylase activity", "setting": "[3]; palmitoylated peptide H3K9Palm", "result": "did not significantly affect"}, {"measurement": "α-tubulin acetylation (acetylated normalized to total α-tubulin, vs vehicle)", "setting": "[4]", "result": "higher levels of the acetylated SIRT2 substrate; also recorded: increased α-tubulin acetylation"}, {"measurement": "inhibition at 300 µM", "setting": "[5]", "result": "49 ± 2", "unit": "%"}]}
